Test results from BindingDB's records for doi:10.1021/jm00065a015 (Smithkline Beecham Pharmaceuticals, 1993).

Target: T1, 5-hydroxytryptamine receptor 2C (Rattus norvegicus, UniProt P08909)
T1 sequence (P08909 whole entry): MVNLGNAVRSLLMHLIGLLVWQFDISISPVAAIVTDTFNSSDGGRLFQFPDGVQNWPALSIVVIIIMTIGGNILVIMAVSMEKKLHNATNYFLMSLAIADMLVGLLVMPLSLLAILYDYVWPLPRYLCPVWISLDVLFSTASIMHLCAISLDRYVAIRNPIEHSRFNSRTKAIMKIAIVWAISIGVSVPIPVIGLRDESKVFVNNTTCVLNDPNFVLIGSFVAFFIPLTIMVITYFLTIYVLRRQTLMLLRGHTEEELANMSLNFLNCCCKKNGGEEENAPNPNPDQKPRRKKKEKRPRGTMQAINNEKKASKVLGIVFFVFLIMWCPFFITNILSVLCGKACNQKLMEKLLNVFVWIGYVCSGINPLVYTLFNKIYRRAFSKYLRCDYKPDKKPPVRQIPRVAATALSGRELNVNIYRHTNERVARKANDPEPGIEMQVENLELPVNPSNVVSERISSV
Assay: Binding affinity for 5-hydroxytryptamine 1C receptor was determined

SMILES: NCCc1c[nH]c2ccc(C(N)=O)cc12 [[3H]-5-carboxamidotryptamine]
- Kd: 631 nM
